Biological target: T1, TBK1 (Homo sapiens, UniProt Q9UHD2)
T1 construct: All protein kinases were of human origin and encoded full length proteins, unless indicated otherwise; His6; made in house; host or cells: insect Sf21 cells
T1 sequence (Q9UHD2 1-729): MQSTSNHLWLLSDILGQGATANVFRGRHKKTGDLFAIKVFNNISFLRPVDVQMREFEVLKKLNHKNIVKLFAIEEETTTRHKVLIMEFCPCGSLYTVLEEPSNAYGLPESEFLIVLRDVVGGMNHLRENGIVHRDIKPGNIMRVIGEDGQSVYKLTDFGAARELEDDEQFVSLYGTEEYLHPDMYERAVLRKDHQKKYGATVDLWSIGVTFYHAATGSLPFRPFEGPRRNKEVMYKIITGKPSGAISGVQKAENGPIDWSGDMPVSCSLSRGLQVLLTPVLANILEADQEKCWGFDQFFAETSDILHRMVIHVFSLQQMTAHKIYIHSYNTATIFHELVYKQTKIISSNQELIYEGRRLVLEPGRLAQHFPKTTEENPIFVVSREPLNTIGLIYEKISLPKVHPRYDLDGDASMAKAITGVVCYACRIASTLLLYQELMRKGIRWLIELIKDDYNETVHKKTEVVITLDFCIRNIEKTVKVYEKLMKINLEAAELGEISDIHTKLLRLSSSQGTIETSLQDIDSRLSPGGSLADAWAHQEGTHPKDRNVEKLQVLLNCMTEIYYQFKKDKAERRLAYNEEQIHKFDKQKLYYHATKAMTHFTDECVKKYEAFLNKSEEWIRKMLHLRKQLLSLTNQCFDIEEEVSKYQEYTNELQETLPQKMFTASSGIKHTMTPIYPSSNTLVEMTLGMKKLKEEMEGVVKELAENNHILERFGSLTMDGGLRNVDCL
Experiment: TBK1 protein kinase assay ([γ-33P]ATP, P81 filterplates)
Assay type: biochemical
Conditions: 50 μM ATP; read-out: Potency (TBK1 IC50 potency score)
In short: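 Human TBK1 assayed for 30 min with peptide substrate (300 μM), 50 μM [γ-33P]ATP and 10 mM magnesium acetate in 50 mM Tris/HCl pH 7.5, 0.1 mM EGTA, 0.1% 2-mercaptoethanol. Stopped with orthophosphoric acid and counted on P81 filters. IC50 from 10 compound concentrations.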

SMILES	IC50
O=C(NCCCNc1nc(Nc2ccc(CN3CCCCC3)nc2)ncc1C1CC1)C1CCC1 [Example 156, Cyclobutanecarboxylic acid {3-[5-cyclopropyl-2-(6-piperidin-1-ylmethyl-pyridin-3-ylamino)-pyrimidin-4-ylamino]-propyl}-amide]	< 100 nM
CN(C)[C@@H]1CCN(Cc2ccc(Nc3ncc(C4CC4)c(NCCCNC(=O)C4CCC4)n3)cn2)C1 [Example 159, Cyclobutanecarboxylic acid (3-{5-cyclopropyl-2-[6-((R)-3-dimethylamino-pyrrolidin-1-ylmethyl)-pyridin-3-ylamino]-pyrimidin-4-ylamino}-propyl)-amide]	< 100 nM
O=C(NCCCNc1nc(Nc2cnn(CCN3CCCCC3)c2)ncc1C1CC1)C1CCC1 [Example 160, Cyclobutanecarboxylic acid (3-{5-cyclopropyl-2-[1-(2-piperidin-1-yl-ethyl)-1H-pyrazol-4-ylamino]-pyrimidin-4-ylamino}-propyl)-amide]	< 100 nM
CC(C)n1cc(Nc2ncc(C3CC3)c(NCCCNC(=O)C3CCC3)n2)cn1 [Example 161, Cyclobutanecarboxylic acid {3-[5-cyclopropyl-2-(1-isopropyl-1H-pyrazol-4-ylamino)-pyrimidin-4-ylamino]-propyl}-amide]	< 100 nM
O=C(C1CCC1)N1CC(CNc2nc(Nc3cccc(F)c3)ncc2C2CC2)C1 [Example 162, Cyclobutyl-(3-{[5-cyclopropyl-2-(3-fluoro-phenylamino)-pyrimidin-4-ylamino]-methyl}-azetidin-1-yl)-methanone]	100 to 1000 nM
CNC(=O)c1ccc(Nc2ncc(C3CC3)c(NCCCNC(=O)C3CCC3)n2)cc1 [Example 164, 4-{4-[3-(Cyclobutanecarbonyl-amino)-propylamino]-5-cyclopropyl-pyrimidin-2-ylamino}-N-methyl-benzamide]	< 100 nM
O=C(NCCCNc1nc(Nc2ccc(N3CCOCC3)cc2)ncc1C1CC1)C1CCC1 [Example 166, Cyclobutanecarboxylic acid {3-[5-cyclopropyl-2-(4-morpholin-4-yl-phenylamino)-pyrimidin-4-ylamino]-propyl}-amide]	< 100 nM
O=C(NCCCNc1nc(Nc2ccc3c(c2)CN(CCO)C3=O)ncc1C1CC1)C1CCC1 [Example 168, Cyclobutanecarboxylic acid (3-{5-cyclopropyl-2-[2-(2-hydroxy-ethyl)-1-oxo-2,3-dihydro-1H-isoindol-5-ylamino]-pyrimidin-4-ylamino}propyl)-amide]	< 100 nM
CN1CCC(c2ccc(Nc3ncc(C4CC4)c(NCCCNC(=O)C4CCC4)n3)cc2)CC1 [Example 171, Cyclobutanecarboxylic acid (3-{5-cyclopropyl-2-[4-(1-methyl-piperidin-4-yl)-phenylamino]-pyrimidin-4-ylamino}-propyl)-amide]	< 100 nM
CN(C)CCc1ccc(Nc2ncc(C3CC3)c(NCCCNC(=O)C3CCC3)n2)cc1 [Example 172, Cyclobutanecarboxylic acid (3-{5-cyclopropyl-2-[4-(2-dimethylamino-ethyl)-phenylamino]-pyrimidin-4-ylamino}-propyl)-amide]	< 100 nM
O=C(NCCCNc1nc(Nc2ccc(C(=O)N3CCOCC3)cc2)ncc1C1CC1)C1CCC1 [Example 174, Cyclobutanecarboxylic acid (3-{5-cyclopropyl-2-[4-(morpholine-4-carbonyl)-phenylamino]-pyrimidin-4-ylamino}-propyl)-amide]	< 100 nM
CN1CCN(C(=O)c2ccc(Nc3ncc(C4CC4)c(NCCCNC(=O)C4CCC4)n3)cc2)CC1 [Example 175, Cyclobutanecarboxylic acid (3-{5-cyclopropyl-2-[4-(4-methyl-piperazine-1-carbonyl)-phenylamino]-pyrimidin-4-ylamino}-propyl)-amide]	< 100 nM
O=C(NCCCNc1nc(Nc2ccc(CCO)cc2)ncc1C1CC1)C1CCC1 [Example 177, Cyclobutanecarboxylic acid (3-{5-cyclopropyl-2-[4-(2-hydroxy-ethyl)-phenylamino]-pyrimidin-4-ylamino}-propyl)-amide]	< 100 nM

The next lines start with the values.

IC50	SMILES
< 100 nM	O=C(NCCCNc1nc(Nc2ccc(CN3CCCC(F)(F)C3)nc2)ncc1C1CC1)C1CCC1 [Example 157, Cyclobutanecarboxylic acid (3-{5-cyclopropyl-2-[6-(3,3-difluoro-piperidin-1-ylmethyl)-pyridin-3-ylamino]-pyrimidin-4-ylamino}-propyl)-amide]
< 100 nM	O=C(NCCCNc1nc(Nc2ccc(NCCN3CCOCC3)nc2)ncc1C1CC1)C1CCC1 [Example 158, Cyclobutanecarboxylic acid (3-{5-cyclopropyl-2-[6-(2-morpholin-4-yl-ethylamino)-pyridin-3-ylamino]-pyrimidin-4-ylamino}-propyl)-amide]
< 100 nM	O=C(NCCCNc1nc(Nc2ccc(S(=O)(=O)Nc3ncccn3)cc2)ncc1C1CC1)C1CCC1 [Example 163, Cyclobutanecarboxylic acid (3-{5-cyclopropyl-2-[4-(pyrimidin-2-ylsulfamoyl)-phenylamino]-pyrimidin-4-ylamino}-propyl)-amide]
< 100 nM	CN1CCN(c2ccc(Nc3ncc(C4CC4)c(NCCCNC(=O)C4CCC4)n3)cc2)CC1 [Example 165, Cyclobutanecarboxylic acid (3-{5-cyclopropyl-2-[4-(4-methyl-piperazin-1-yl)-phenylamino]-pyrimidin-4-ylamino}-propyl)-amide]
< 100 nM	CN1Cc2cc(Nc3ncc(C4CC4)c(NCCCNC(=O)C4CCC4)n3)ccc2C1=O [Example 167, Cyclobutanecarboxylic acid {3-[5-cyclopropyl-2-(2-methyl-1-oxo-2,3-dihydro-1H-isoindol-5-ylamino)-pyrimidin-4-ylamino]-propyl}-amide]
< 100 nM	O=C(NCCCNc1nc(Nc2ccc(-n3cncn3)cc2)ncc1C1CC1)C1CCC1 [Example 169, Cyclobutanecarboxylic acid (3-{5-cyclopropyl-2-[4-(2H-1,2,4-triazol-1-yl)-phenylamino]-pyrimidin-4-ylamino}-propyl)-amide]
< 100 nM	O=C1Cc2cc(Nc3ncc(C4CC4)c(NCCCNC(=O)C4CCC4)n3)ccc2N1 [Example 170, Cyclobutanecarboxylic acid {3-[5-cyclopropyl-2-(2-oxo-2,3-dihydro-1H-indol-5-ylamino)-pyrimidin-4-ylamino]-propyl}-amide]
< 100 nM	CN(C)Cc1ccc(Nc2ncc(C3CC3)c(NCCCNC(=O)C3CCC3)n2)cc1 [Example 173, Cyclobutanecarboxylic acid (3-{5-cyclopropyl-2-[4-(2-dimethylamino-methyl)-phenylamino]-pyrimidin-4-ylamino}-propyl)-amide]
< 100 nM	CN(C)CCN(C)C(=O)c1ccc(Nc2ncc(C3CC3)c(NCCCNC(=O)C3CCC3)n2)cc1 [Example 176, 4-{4-[3-(Cyclobutanecarbonyl-amino)-propylamino]-5-cyclopropyl-pyrimidin-2-ylamino}-N-(2-dimethylamino-ethyl)-N-methyl-benzamide]
< 100 nM	O=C(NCCCNc1nc(Nc2ccc3[nH]c(=O)[nH]c3c2)ncc1C1CC1)C1CCC1 [Example 178, Cyclobutanecarboxylic acid {3-[5-cyclopropyl-2-(2-oxo-2,3-dihydro-1H-benzimidazol-5-ylamino)-pyrimidin-4-ylamino]-propyl}-amide]

Reference: US20100056524A1, “Compound” (priority 2008, published 2010)
